Test results from ChEMBL document CHEMBL5528025, “Design, synthesis and biological evaluation of carbamate derivatives incorporating multifunctional carrier scaffolds as pseudo-irreversible cholinesterase inhibitors for the treatment of Alzheimer's disease” (Eur J Med Chem, 2024).
pIC50: −log10 of the molar value. Calls of active or inactive are those of the source. The rule behind the calls is not given here.

Legend:
[1] = Cytotoxicity against rat PC-12 cells assessed as cell viability at 10 uM incubated for 24 hrs by CCK-8 assay relative to control; type: toxicity, cell-based; settings: read-out: Activity
Cholinesterase [2] = molecular target: T1, Cholinesterase (Homo sapiens, UniProt P06276)
T1 sequence (P06276 whole entry): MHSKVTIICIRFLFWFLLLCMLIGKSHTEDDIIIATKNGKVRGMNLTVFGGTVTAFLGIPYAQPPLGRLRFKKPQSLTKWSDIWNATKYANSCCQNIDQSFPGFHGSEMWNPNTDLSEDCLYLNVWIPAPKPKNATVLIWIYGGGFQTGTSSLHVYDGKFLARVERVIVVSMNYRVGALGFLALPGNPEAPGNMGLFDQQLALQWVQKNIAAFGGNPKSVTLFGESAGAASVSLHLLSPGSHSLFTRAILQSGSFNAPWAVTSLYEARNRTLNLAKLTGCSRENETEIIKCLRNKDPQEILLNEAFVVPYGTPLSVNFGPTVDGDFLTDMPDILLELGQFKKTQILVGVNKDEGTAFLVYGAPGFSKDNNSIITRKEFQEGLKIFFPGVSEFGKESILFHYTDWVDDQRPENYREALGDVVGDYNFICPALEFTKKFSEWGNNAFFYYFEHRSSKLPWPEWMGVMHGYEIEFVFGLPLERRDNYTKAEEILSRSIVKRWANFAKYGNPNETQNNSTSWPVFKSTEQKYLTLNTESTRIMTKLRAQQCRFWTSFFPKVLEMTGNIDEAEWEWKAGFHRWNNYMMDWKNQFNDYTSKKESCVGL
Description: Inhibition of human serum BuChE using butyrylthiocholine iodide as substrate incubated for 10 mins followed by substrate addition and measured after 10 mins by DTNB reagent based Ellman's method

BV-2 [3] = assay: Cytotoxicity against mouse BV-2 cells assessed as reduction in cell viability at 5 uM incubated for 24 hrs by CCK-8 assay; type: toxicity, cell-based; settings: bv-2, 24 h
Acetylcholinesterase [4] = molecular target: T2, Acetylcholinesterase (Homo sapiens, UniProt P22303)
T2 sequence (P22303 whole entry, the tested form may be a part): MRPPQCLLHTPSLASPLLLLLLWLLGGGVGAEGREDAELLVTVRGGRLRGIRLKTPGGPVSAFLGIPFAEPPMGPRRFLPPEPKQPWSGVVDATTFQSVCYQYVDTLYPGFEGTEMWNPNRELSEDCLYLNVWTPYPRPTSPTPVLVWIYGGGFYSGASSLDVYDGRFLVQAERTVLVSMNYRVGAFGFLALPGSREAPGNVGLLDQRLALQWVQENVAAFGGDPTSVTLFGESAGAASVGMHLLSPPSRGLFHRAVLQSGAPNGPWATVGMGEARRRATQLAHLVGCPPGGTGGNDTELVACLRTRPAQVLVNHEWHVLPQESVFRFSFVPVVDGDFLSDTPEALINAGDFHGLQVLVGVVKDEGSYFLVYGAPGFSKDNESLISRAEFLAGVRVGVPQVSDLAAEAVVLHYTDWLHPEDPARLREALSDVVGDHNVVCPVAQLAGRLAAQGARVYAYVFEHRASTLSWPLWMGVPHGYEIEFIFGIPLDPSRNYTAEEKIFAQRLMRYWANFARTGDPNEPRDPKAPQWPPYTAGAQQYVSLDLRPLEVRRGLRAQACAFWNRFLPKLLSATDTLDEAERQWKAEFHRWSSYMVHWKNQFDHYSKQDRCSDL
Description: Inhibition of human erythrocyte AChE incubated for 10 mins

Mus musculus [5] = assay: Antialzheimer activity in amyloid beta (1 to 42 residues) induced ICR mouse model assessed as reduction in learning deficits by measuring reduction in path search distance at 5 to 20 mg/kg, ip administered daily and measured on day 4 by morris water maze test; type: functional, organism-based; settings: dose 5-20 mg/kg, time 4.0 day
Mus musculus [6] = assay: In vivo inhibition of BuChE in scopolamine treated ICR mouse assessed as reduction in BuChE level in brain at 20 mg/kg, ip preadministered with scopolamine for 7 days followed by compound administration and measured after 7 days; type: functional, organism-based; settings: time 7.0 day
[7] = Acute toxicity in ICR mouse assessed as abnormal dietary patterns at 100 to 500 mg/kg, ip measured after 14 days; type: organism-based; settings: in vivo, 336 h, dose 100-500 mg/kg, time 14 day
[8] = Hepatotoxicity in IG dosed ICR mouse measured after 48 hrs; type: toxicity, organism-based; settings: in vivo, po
[9] = Acute toxicity in ICR mouse assessed as histopathological change in spleen at 100 to 500 mg/kg, ip measured after 14 days by H and E staining based analysis; type: organism-based; settings: in vivo, 336 h, dose 100-500 mg/kg, time 14 day
Mus musculus [10] = assay: In vivo inhibition of AChE in scopolamine treated ICR mouse assessed as reduction in AChE level in brain at 5 to 20 mg/kg, ip preadministered with scopolamine for 7 days followed by compound administration and measured after 7 days; type: functional, organism-based; settings: dose 5-20 mg/kg, time 7.0 day
Acetylcholinesterase [11] = molecular target: T2, Acetylcholinesterase; assay: Pseudo-irreversible inhibition of human erythrocyte AChE at 4 times IC50 preincubated for 20 mins followed by dialysis and measured after 12 hrs; type: cell-based
[12] = Acute toxicity in ICR mouse assessed as reduction in body weight at 100 to 500 mg/kg, ip measured after 2 days; type: organism-based; settings: in vivo, 48 h, dose 100-500 mg/kg, time 2 day
Mus musculus [13] = assay: Antialzheimer activity in amyloid beta (1 to 42 residues) induced ICR mouse model assessed as reduction in nerve damage by measuring increase in live neurons in hippocampal CA1 region at 5 to 20 mg/kg, ip administered daily by nissl staining based fluorescence microscopy; type: functional, organism-based; settings: dose 5-20 mg/kg
[14] = Acute toxicity in ICR mouse assessed as histopathological change in brain at 100 to 500 mg/kg, ip measured after 14 days by H and E staining based analysis; type: organism-based; settings: in vivo, 336 h, dose 100-500 mg/kg, time 14 day
Mus musculus [15] = assay: Antialzheimer activity in ip dosed amyloid beta (1 to 42 residues) induced ICR mouse model assessed as reduction in learning deficits by measuring increase in alternation performance administered daily and measured on day 12 by Y-maze test; type: functional, organism-based; settings: dose 5-20 mg/kg, time 12.0 day
[16] = Acute toxicity in ICR mouse assessed as histopathological change in liver at 100 to 500 mg/kg, ip measured after 14 days by H and E staining based analysis; type: organism-based; settings: in vivo, 336 h, dose 100-500 mg/kg, time 14 day
Mus musculus [17] = assay: Antialzheimer activity in amyloid beta (1 to 42 residues) induced ICR mouse model assessed as reduction in learning deficits by measuring increase in trajectory within target quadrant at 5 to 20 mg/kg, ip administered daily and measured after 13 to 17 days by morris water maze test; type: functional, organism-based; settings: dose 5-20 mg/kg, time 13-17 day
Mus musculus [18] = assay: Antialzheimer activity in amyloid beta (1 to 42 residues) induced ICR mouse model assessed as reduction in learning deficits by measuring increase in duration of time spent within target quadrant at 5 to 20 mg/kg, ip administered daily and measured after 13 to 17 days by morris water maze test; type: functional, organism-based; settings: dose 5-20 mg/kg, time 13-17 day
Mus musculus [19] = assay: Antialzheimer activity in amyloid beta (1 to 42 residues) induced ICR mouse model assessed as reduction in learning deficits by measuring increase in distance traveled within target quadrant at 5 to 20 mg/kg, ip administered daily and measured after 13 to 17 days by morris water maze test; type: functional, organism-based; settings: dose 5-20 mg/kg, time 13-17 day
Mus musculus [20] = assay: Antialzheimer activity in amyloid beta (1 to 42 residues) induced ICR mouse model assessed as reduction in learning deficits by measuring reduction in latency at 5 to 20 mg/kg, ip administered daily and measured for 3 days by morris water maze test; type: functional, organism-based; settings: dose 5-20 mg/kg, time 3.0 day
[21] = Acute toxicity in ICR mouse assessed as aberrant behavior at 100 to 500 mg/kg, ip measured after 14 days; type: organism-based; settings: in vivo, 336 h, dose 100-500 mg/kg, time 14 day
PC-12 [22] = assay: (§1) Neuroprotective activity against H2O2-induced rat PC-12 cells assessed as protection against H2O2-induced apoptosis by measuring live cells at 10 uM pretreated for 1 hr followed by H2O2 addition and measured after 24 hrs by Annexin V-FITC/PI staining based flow cytometry analysis (reference value: 63.2%); type: functional; settings: time 25 hrs
Cholinesterase [23] = molecular target: T1, Cholinesterase; assay: Pseudo-irreversible inhibition of human serum BuChE using butyrylthiocholine iodide as substrate at 4 times IC50 preincubated for 20 mins followed by dialysis and measured after 12 hrs by DTNB reagent based Ellman's method
PC-12 [24] = assay: as §1, with “late apoptotic” for “live”, “7.97%)” for “63.2%)”; type: functional; settings: time 25 hrs
Mus musculus [25] = assay: Antialzheimer activity in amyloid beta (1 to 42 residues) induced ICR mouse model assessed as reduction in nerve damage by measuring increase in live neurons in hippocampal CA3 region at 20 mg/kg, ip administered daily by nissl staining based fluorescence microscopy; type: functional, organism-based
[26] = Acute toxicity in ICR mouse assessed as histopathological change in heart at 100 to 500 mg/kg, ip measured after 14 days by H and E staining based analysis; type: organism-based; settings: in vivo, 336 h, dose 100-500 mg/kg, time 14 day
PC-12 [27] = assay: Inhibition of H2O2 induced ROS production in rat PC-12 cells assessed as reduction in intracellular ROS level at 10 uM pretreated for 1 hr followed by H2O2 stimulation and measured after 24 hrs by confocal microscopic analysis; type: functional, cell-based; settings: time 25.0 hrs
BV-2 [28] = assay: Antineuroinflammatory activity in LPS-induced mouse BV-2 cells assessed as increase in IL-4 level at 1.25 to 5 uM incubated for 24 hrs by ELISA; type: functional, cell-based; settings: dose 1.25-5 µM
Mus musculus [29] = assay: Antialzheimer activity in amyloid beta (1 to 42 residues) induced ICR mouse model assessed as increase in step through latency at 5 to 20 mg/kg, ip administered daily and measured on day 18 and 19 by passive avoidance test; type: functional, organism-based; settings: dose 5-20 mg/kg, time 18-19 day

Q: For O=C(NCCCCCNc1c2c(nc3cc(Cl)ccc13)CCCC2)Oc1ccc2cc[nH]c2c1, which viability at 24 h, 10 µM [1] is on record?
A: > 90%

Q: What about the pIC50 (Cholinesterase [2]) of the same compound?
A: 7.31

Q: What about the Activity (BV-2 [3]) of the same compound?
A: Toxic

Q: And the pIC50 (Acetylcholinesterase [4])?
A: 6.61

Q: For O=C(NCCCCCCNc1c2c(nc3cc(F)ccc13)CCCC2)Oc1ccc(-c2cc3cccnc3[nH]2)cc1, which Activity (Mus musculus [5]) is on record?
A: Active

Q: And the viability at 24 h, 10 µM [1]?
A: > 90%

Q: What about the inhibition (Mus musculus [6]) of the same compound?
A: Active

Q: And the Activity [7]?
A: Non-Toxic

Q: What about the LD50 at 48 h [8] of the same compound?
A: > 500 mg/kg

Q: And the Activity [9]?
A: Non-Toxic

Q: And the inhibition (Mus musculus [10])?
A: Active

Q: And the inhibition (Acetylcholinesterase [11])?
A: Active

Q: What about the Activity [12] of the same compound?
A: Toxic

Q: What about the Activity (Mus musculus [13]) of the same compound?
A: Active

Q: What about the Activity [14] of the same compound?
A: Non-Toxic

Q: What about the Activity (Mus musculus [15]) of the same compound?
A: Dose-Dependent Effect

Q: And the pIC50 (Cholinesterase [2])?
A: 7.32

Q: And the Activity [16]?
A: Non-Toxic

Q: And the Activity (Mus musculus [17])?
A: Active

Q: And the Activity (Mus musculus [18])?
A: Active

Q: What about the Activity (BV-2 [3]) of the same compound?
A: Non-Toxic

Q: What about the Activity (Mus musculus [19]) of the same compound?
A: Active

Q: What about the Activity (Mus musculus [20]) of the same compound?
A: Active

Q: And the Activity [21]?
A: Non-Toxic

Q: What about the Activity (PC-12 [22]) of the same compound?
A: 81.3%

Q: And the inhibition (Cholinesterase [23])?
A: Active

Q: What about the Activity (PC-12 [24]) of the same compound?
A: 5.8%

Q: And the pIC50 (Acetylcholinesterase [4])?
A: 7.52

Q: And the Activity (Mus musculus [25])?
A: Active

Q: What about the Activity [26] of the same compound?
A: Non-Toxic

Q: And the inhibition (PC-12 [27])?
A: Active

Q: What about the Activity (BV-2 [28]) of the same compound?
A: Active

Q: And the Activity (Mus musculus [29])?
A: Active

Q: What does the source list for C[C@@H](c1cccc(OC(=O)NCCCCCCNc2c3c(nc4cc(Cl)ccc24)CCCC3)c1)N(C)C?
A: pIC50 (Cholinesterase [2]): 7.03; pIC50 (Acetylcholinesterase [4]): 7.59

Q: Which inhibition (Acetylcholinesterase [11]) does the source give for CCN(C)C(=O)Oc1cccc([C@H](C)N(C)C)c1 here?
A: Active

Q: And the inhibition (Cholinesterase [23])?
A: Active

Q: With C[C@@H](c1cccc(OC(=O)NCCCCCNc2c3c(nc4cc(F)ccc24)CCCC3)c1)N(C)C as the compound, how does the pIC50 (Cholinesterase [2]) read?
A: 6.86

Q: What about the pIC50 (Acetylcholinesterase [4]) of the same compound?
A: 7.42

Q: With O=C(NCCCCCCNc1c2c(nc3cc(Cl)ccc13)CCCC2)Oc1ccc2cc[nH]c2c1 as the compound, how does the pIC50 (Cholinesterase [2]) read?
A: 7.19

Q: And the pIC50 (Acetylcholinesterase [4])?
A: 6.82

Q: With O=C(NCCCCCNc1c2c(nc3cc(F)ccc13)CCCC2)Oc1ccc2cc[nH]c2c1 as the compound, how does the pIC50 (Cholinesterase [2]) read?
A: 7.40

Q: And the pIC50 (Acetylcholinesterase [4])?
A: 6.56

Q: Which results are given for O=C(NCCCCNc1c2c(nc3ccccc13)CCCC2)Oc1ccc2cc[nH]c2c1?
A: pIC50 (Cholinesterase [2]): 8.87; pIC50 (Acetylcholinesterase [4]): 6.29

Q: With O=C(NCCCCCNc1c2c(nc3ccccc13)CCCC2)Oc1ccc(-c2cc3cccnc3[nH]2)cc1 as the compound, how does the pIC50 (Cholinesterase [2]) read?
A: 7.67

Q: And the pIC50 (Acetylcholinesterase [4])?
A: 6.82

Q: With O=C(NCCCCCCNc1c2c(nc3cc(Cl)ccc13)CCCC2)Oc1ccc(-c2cc3cccnc3[nH]2)cc1 as the compound, how does the pIC50 (Cholinesterase [2]) read?
A: 6.55

Q: And the pIC50 (Acetylcholinesterase [4])?
A: 7.19

Q: Which results are given for O=C(NCCNc1c2c(nc3ccccc13)CCCC2)Oc1ccc2cc[nH]c2c1?
A: pIC50 (Cholinesterase [2]): 9.43; pIC50 (Acetylcholinesterase [4]): 5.90

Q: With O=C(NCCCCCCNc1c2c(nc3cc(Br)ccc13)CCCC2)Oc1ccc2cc[nH]c2c1 as the compound, how does the pIC50 (Cholinesterase [2]) read?
A: 7.24

Q: And the pIC50 (Acetylcholinesterase [4])?
A: 6.95

Q: With O=C(NCCCCCCNc1c2c(nc3ccccc13)CCCC2)Oc1ccc(-c2cc3cccnc3[nH]2)cc1 as the compound, how does the pIC50 (Cholinesterase [2]) read?
A: 7.74

Q: What about the pIC50 (Acetylcholinesterase [4]) of the same compound?
A: 7.67

Q: With C[C@@H](c1cccc(OC(=O)NCCCCCCNc2c3c(nc4cc(Br)ccc24)CCCC3)c1)N(C)C as the compound, how does the pIC50 (Cholinesterase [2]) read?
A: 8.02

Q: What about the pIC50 (Acetylcholinesterase [4]) of the same compound?
A: 7.25

Q: With O=C(NCCCCCCNc1c2c(nc3ccccc13)CCCC2)Oc1ccc2cc[nH]c2c1 as the compound, how does the pIC50 (Cholinesterase [2]) read?
A: 7.12

Q: And the pIC50 (Acetylcholinesterase [4])?
A: 6.42

Q: With O=C(NCCCCCNc1c2c(nc3cc(F)ccc13)CCCC2)Oc1ccc(-c2cc3cccnc3[nH]2)cc1 as the compound, how does the pIC50 (Cholinesterase [2]) read?
A: 6.48

Q: And the pIC50 (Acetylcholinesterase [4])?
A: 6.82

Q: With C[C@@H](c1cccc(OC(=O)NCCCCCCNc2c3c(nc4cc(F)ccc24)CCCC3)c1)N(C)C as the compound, how does the pIC50 (Cholinesterase [2]) read?
A: 7.96

Q: What about the pIC50 (Acetylcholinesterase [4]) of the same compound?
A: 7.38

Q: With C[C@@H](c1cccc(OC(=O)NCCCNc2c3c(nc4ccccc24)CCCC3)c1)N(C)C as the compound, how does the pIC50 (Cholinesterase [2]) read?
A: 7.63

Q: And the pIC50 (Acetylcholinesterase [4])?
A: 6.41
